Values joined by “and” are separate entries in the source; they are usually repeats but may differ in a detail not shown here. Identical values can stand only once. Counter-ions that a name gives are not always drawn. Active and inactive are the calls of the source. No cut-off for these calls is given here.
What was measured:
SARS-CoV-2 [1] = experiment: microbe, parasite or virus in culture; type: functional, organism-based, Chlorocebus sabaeus, Vero C1008
in vitro [2] = conditions: monkey, Vero E6 cells, Selectivity index
SARS-CoV-2 [3] = experiment: microbe, parasite or virus in culture; type: functional, organism-based, Chlorocebus sabaeus, Vero C1008; remark: listed apart in the source
SARS-CoV-2 [4] = experiment: Reduction of viral mRNA (RdRp and N) in SARS-CoV-2 infected Vero E6 cells (at MOI 0.1) after 24 hrs; type: functional, organism-based; conditions: Chlorocebus sabaeus; Vero C1008
Vero C1008 = conditions: chlorocebus sabaeus, vero c1008, 72 h
SARS-CoV-2 [5] = experiment: Reduction of SARS-CoV-2 infection by time of addition assay, with 50uM hydroxychloroquine administered at -2hrs, 0 hrs and 2hrs post-infection; type: functional, organism-based; conditions: Chlorocebus sabaeus, Vero C1008
in vitro [6] = conditions: monkey, Vero E6 cells, Selectivity index; remark: listed apart in the source
SARS-CoV = experiment: Reduction of SARS spike protein-mediated cell fusion using BlaM pseudovirus assay system in BSC1 cells; type: functional, Chlorocebus aethiops, BSC-1
[7] = Severe acute respiratory syndrome coronavirus 2, Vero C1008, 72 h

| Compound | IC50 (SARS-CoV-2 [1]; [7]) [µM] | selectivity ratio (in vitro [2]) | IC50 (SARS-CoV-2 [3]; [7]) [µM] | CC50 (Vero C1008) [µM] | selectivity ratio (in vitro [6]) | further results |
| --- | --- | --- | --- | --- | --- | --- |
| CCN(CCO)CCCC(C)Nc1ccnc2cc(Cl)ccc12 (stereo not drawn) [HYDROXYCHLOROQUINE SULFATE] | 9.21 | > 5.43 | 11.2 | > 50 | > 4.48 | Activity (SARS-CoV-2 [4]): Active; Activity (SARS-CoV-2 [5]; time 0.0 hr): Active; Activity (SARS-CoV-2 [5]; time 2.0 hr): Active; Activity (SARS-CoV-2 [5]; time -2.0 hr): Active |
| CN(C)CCOc1ccc(/C(=C(/CCCl)c2ccccc2)c2ccccc2)cc1 [TOREMIFENE CITRATE] | 4.77 | 4.3 | 11.3 | 20.5 | 1.81 |  |
| CCN(CC)CCCC(C)Nc1ccnc2cc(Cl)ccc12.O=P(O)(O)O.O=P(O)(O)O (stereo not drawn) [CHLOROQUINE PHOSPHATE] | 42 |  | 46.8 |  |  | Inhibition (SARS-CoV): >90%; Activity (SARS-CoV-2 [4]): Active |
| Cc1ccc(NC(=O)c2ccc(CN3CCN(C)CC3)cc2)cc1Nc1nccc(-c2cccnc2)n1 [IMATINIB MESYLATE] |  |  |  | > 30.9 |  |  |
| CC[C@H]1CN2CCc3cc(OC)c(OC)cc3[C@@H]2C[C@@H]1C[C@H]1NCCc2cc(OC)c(OC)cc21 [EMETINE DIHYDROCHLORIDE HYDRATE] |  |  |  | < 0.39 |  |  |
| CCSc1ccc2c(c1)N(CCCN1CCN(C)CC1)c1ccccc1S2 [THIETHYLPERAZINE MALEATE] | 7.09 | 2.59 | 8.02 | 18.4 | 2.29 |  |
| CC/C(=C(\c1ccccc1)c1ccc(OCCN(C)C)cc1)c1ccccc1 [TAMOXIFEN CITRATE] |  |  |  | 38 |  |  |
| CCN(CC)Cc1cc(Nc2ccnc3cc(Cl)ccc23)ccc1O [AMODIAQUINE HYDROCHLORIDE] | 2.59 | 13.3 | 4.94 |  | 6.97 | IC50 (SARS-CoV-2 [1]; vero c1008): 2.36 µM; IC50 (SARS-CoV-2 [3]; vero c1008): 5.64 µM; CC50 (Vero C1008; 72 h): 34.4 µM and > 38.6 µM |
| OC(c1cc(C(F)(F)F)nc2c(C(F)(F)F)cccc12)C1CCCCN1 (stereo not drawn) [MEFLOQUINE HYDROCHLORIDE] | 7.11 | 2.61 | 8.06 | 18.5 | 2.3 |  |
| CC(C)N1CCN(c2ccc(OCC3COC(Cn4cncn4)(c4ccc(Cl)cc4Cl)O3)cc2)CC1 (stereo not drawn) [TERCONAZOLE] | 11.9 | 3.48 | 16.1 | 41.5 | 2.57 |  |
| CN(C)CCCN1c2ccccc2Sc2ccc(Cl)cc21.Cl [CHLORPROMAZINE HYDROCHLORIDE] | 3.14 |  | 4.03 | 11.9 |  | Inhibition (SARS-CoV): >90% |
| Nc1ccn([C@@H]2O[C@H](CO)[C@@H](O)C2(F)F)c(=O)n1 [GEMCITABINE HYDROCHLORIDE] |  |  |  | 23.2 |  |  |
| CC(CN1c2ccccc2Sc2ccccc21)N(C)C (stereo not drawn) [PROMETHAZINE HYDROCHLORIDE] | 9.21 | > 4.62 | 10.4 | > 42.6 | > 4.08 |  |
| O=C1NCN(c2ccccc2)C12CCN(CCCC(c1ccc(F)cc1)c1ccc(F)cc1)CC2 | 3.16 | 9.61 | 5.32 | 30.3 | 5.71 |  |
| CCN(CC)CCOc1ccc(C(O)(Cc2ccc(Cl)cc2)c2ccc(C)cc2)cc1 (stereo not drawn) [TRIPARANOL] | 4.68 | 4.53 | 6.41 | 21.2 | 3.31 |  |

From ChEMBL document CHEMBL4303087, “Broad anti-coronaviral activity of FDA approved drugs against SARS-CoV-2 in vitro and SARS-CoV in vivo” (2020)
